Experimental data published in patent US20230265151A1, “GIP/GLP1 CO-AGONIST COMPOUNDS” (priority 2020, published 2023).
Like-named read-outs stand apart in the source and are kept apart here. *1 amine or outer side, *2 acyl side, *3 side chain or, on linkers, in order; H or OH if unused. Where a SMILES comes first, the peptide text is derived from it. Side-chain parts run from the residue outwards. [ ]: non-standard residue; d: D form. The star is where a group is joined. Undecanoyl(11-OPh(4-COOH)) = O=C(O)c1ccc(OCCCCCCCCCCC(=O)*)cc1; αMePhe(2-F) = C[C@](N)(Cc1ccccc1F)C(=O)O; γGlu = O=C(O)[C@H](CCC(=O)[*:2])N[*:1]; αMeY = C[C@](N)(Cc1ccc(O)cc1)C(=O)O; 4Pal = N[C@@H](Cc1ccncc1)C(=O)O; αMeL = CC(C)C[C@](C)(N)C(=O)O; Orn = NCCC[C@H](N)C(=O)O; AEEA = NCCOCCOCC(=O)O; Aib = CC(C)(N)C(=O)O

Experiments:
Assay type in all cases: cell-based
hGCGR = molecular target: T1, hGCGR (Homo sapiens, UniProt P47871); assay: Functional cAMP formation (HTRF) in HEK-293 clonal cells expressing hGCGR, 0.1% bovine casein, without or with 1.0% human serum albumin; conditions: hGCGR EC50, nM (SEM, n), geometric mean
T1 construct: expressed in transfected cells
In short: (§1)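 Cells were stimulated with peptide for 30 min at 37° C, then intracellular cAMP was measured by competitive HTRF (665/620 nm ratio) and converted to nM using a cAMP standard curve. Relative EC50 and Emax came from four-parameter logistic fits of percent maximal response against peptide concentration.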

hGLP-1R = hGLP-1R (Homo sapiens, UniProt P43220); assay: Functional cAMP formation (HTRF) in HEK-293 clonal cells expressing hGLP-1R, 0.1% bovine casein, without or with 1.0% human serum albumin; parameters: expressed in transfected cells; conditions: for EC50: hGLP-1R EC50, nM (SEM, n), cAMP, incubated at 37° C., 0.1% bovine casein (no human serum albumin), geometric mean
In short: as §1

hGIPR = molecular target: T2, hGIPR (Homo sapiens, UniProt P48546); assay: Functional cAMP formation (HTRF) in HEK-293 clonal cells expressing hGIPR, 0.1% bovine casein, without or with 1.0% human serum albumin; conditions: for EC50: hGIPR EC50, nM (SEM, n), geometric mean
T2 construct: expressed in transfected cells
T2 sequence (P48546 22-466): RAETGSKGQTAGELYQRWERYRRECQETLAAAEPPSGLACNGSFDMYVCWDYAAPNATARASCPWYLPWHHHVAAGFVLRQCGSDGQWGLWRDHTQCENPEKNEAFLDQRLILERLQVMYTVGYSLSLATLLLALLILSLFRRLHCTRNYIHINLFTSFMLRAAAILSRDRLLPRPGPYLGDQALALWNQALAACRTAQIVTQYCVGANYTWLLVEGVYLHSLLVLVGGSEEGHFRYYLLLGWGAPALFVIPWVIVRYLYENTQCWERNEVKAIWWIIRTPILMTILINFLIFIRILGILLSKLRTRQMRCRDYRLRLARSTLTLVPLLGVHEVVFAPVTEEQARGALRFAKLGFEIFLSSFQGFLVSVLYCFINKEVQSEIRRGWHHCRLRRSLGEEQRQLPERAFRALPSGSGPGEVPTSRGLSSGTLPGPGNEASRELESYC
In short: as §1

[1] = 0.1% bovine casein and 1.0% human serum albumin, 37° C.
[2] = cAMP, incubated at 37° C., 0.1% bovine casein (no human serum albumin)
[3] = HEK293, read-out: hGLP-1R Emax, % ± SEM, percent of maximal response to GLP-1(7-36)NH2, 37° C., 0.1% bovine casein, arithmetic mean
[4] = HEK293, read-out: hGIPR Emax, % ± SEM, 0.1% bovine casein and 1.0% human serum albumin, 37° C., percent of maximal response to GIP(1-42)NH2

T1 sequence (P47871 26-477): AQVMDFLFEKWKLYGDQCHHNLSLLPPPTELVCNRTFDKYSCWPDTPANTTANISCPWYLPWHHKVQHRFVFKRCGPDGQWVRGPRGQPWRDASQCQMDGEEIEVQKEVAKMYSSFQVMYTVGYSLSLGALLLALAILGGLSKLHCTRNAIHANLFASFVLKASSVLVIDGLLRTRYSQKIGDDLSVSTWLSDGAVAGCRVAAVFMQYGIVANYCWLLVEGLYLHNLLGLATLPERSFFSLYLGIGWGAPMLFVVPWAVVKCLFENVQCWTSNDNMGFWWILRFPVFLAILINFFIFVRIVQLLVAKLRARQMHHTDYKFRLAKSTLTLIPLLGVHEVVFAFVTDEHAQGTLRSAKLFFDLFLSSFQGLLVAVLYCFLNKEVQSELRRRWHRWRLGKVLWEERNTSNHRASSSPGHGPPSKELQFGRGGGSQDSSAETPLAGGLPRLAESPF
Chain of hGLP-1R (P43220 24-463): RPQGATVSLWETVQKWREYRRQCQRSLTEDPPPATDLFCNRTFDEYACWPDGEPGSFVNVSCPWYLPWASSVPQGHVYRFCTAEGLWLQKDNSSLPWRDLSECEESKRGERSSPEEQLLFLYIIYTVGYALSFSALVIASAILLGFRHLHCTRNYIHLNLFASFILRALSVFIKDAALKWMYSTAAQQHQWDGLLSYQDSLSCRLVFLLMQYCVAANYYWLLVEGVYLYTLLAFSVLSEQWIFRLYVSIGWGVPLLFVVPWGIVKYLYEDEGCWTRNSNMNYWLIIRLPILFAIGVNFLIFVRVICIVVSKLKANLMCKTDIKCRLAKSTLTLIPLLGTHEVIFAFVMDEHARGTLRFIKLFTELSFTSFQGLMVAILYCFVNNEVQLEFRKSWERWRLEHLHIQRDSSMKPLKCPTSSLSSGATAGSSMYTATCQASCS

SMILES	EC50 (hGCGR; [1]) [nM]	EC50 (hGCGR; [2]) [nM]	Emax (hGLP-1R; [3]) [%]	EC50 (hGLP-1R) [nM]	Emax (hGIPR; [4]) [%]	Emax (hGIPR; HEK293, read-out: hGIPR Emax, % ± SEM, percent of maximal response to GIP(1-42)NH2, 37° C., 0.1% bovine casein, arithmetic mean) [%]	EC50 (hGIPR; [2]) [nM]	Emax (hGLP-1R; HEK293, read-out: hGLP-1R Emax, % ± SEM, 0.1% bovine casein and 1.0% human serum albumin, 37° C., percent of maximal response to GLP-1(7-36)NH2) [%]	EC50 (hGIPR; [1]) [nM]
CC[C@H](C)[C@H](NC(=O)[C@H](CCCN)NC(=O)[C@H](CC(=O)O)NC(=O)[C@H](CC(C)C)NC(=O)[C@](C)(CC(C)C)NC(=O)[C@@H](NC(=O)C(C)(C)NC(=O)[C@H](Cc1ccncc1)NC(=O)[C@H](CC(=O)O)NC(=O)[C@H](CO)NC(=O)[C@@H](NC(=O)[C@](C)(Cc1ccccc1F)NC(=O)[C@@H](NC(=O)CNC(=O)[C@H](CCC(=O)O)NC(=O)C(C)(C)NC(=O)[C@@H](N)Cc1ccc(O)cc1)[C@@H](C)O)[C@@H](C)O)[C@@H](C)CC)C(=O)N[C@@H](C)C(=O)N[C@@H](CCC(N)=O)C(=O)NC(C)(C)C(=O)N[C@@H](CCCCNC(=O)COCCOCCNC(=O)COCCOCCNC(=O)CC[C@H](NC(=O)CCCCCCCCCCOc1ccc(C(=O)O)cc1)C(=O)O)C(=O)N[C@@H](Cc1ccccc1)C(=O)N[C@H](C(=O)N[C@H](CCC(=O)O)C(=O)N[C@@](C)(Cc1ccc(O)cc1)C(=O)N[C@@H](CC(C)C)C(=O)N[C@H](C(=O)N[C@@H](CCC(=O)O)C(=O)NCC(=O)NCC(=O)N1CCC[C@H]1C(=O)N[C@@H](CO)C(=O)N[C@@H](CO)C(=O)NCC(=O)N[C@@H](C)C(=O)N1CCC[C@H]1C(=O)N1CCC[C@H]1C(=O)N1CCC[C@H]1C(=O)N[C@@H](CO)C(=O)N[C@@H](CCCCNC(=O)COCCOCCNC(=O)COCCOCCNC(=O)CC[C@H](NC(=O)CCCCCCCCCCOc1ccc(C(=O)O)cc1)C(=O)O)C(N)=O)[C@@H](C)CC)[C@@H](C)CC [Example 242] (H-Y[Aib]EGT[αMePhe(2-F)]TSD[4Pal][Aib]I[αMeL]LD[Orn]IAQ[Aib]K([AEEA-AEEA-γGlu-Undecanoyl(11-OPh(4-COOH))])FI[dE][αMeY]LIEGGPSSGAPPPSK([AEEA-AEEA-γGlu-Undecanoyl(11-OPh(4-COOH))])-NH2)	> 9950	> 9950	96.3	0.584	83.9	100	0.0197	–	–
CC[C@H](C)[C@H](NC(=O)[C@H](CC(C)C)NC(=O)[C@](C)(Cc1ccc(O)cc1)NC(=O)[C@@H](CCC(=O)O)NC(=O)[C@@H](NC(=O)[C@H](Cc1ccccc1)NC(=O)[C@H](CCCCNC(=O)COCCOCCNC(=O)COCCOCCNC(=O)CC[C@H](NC(=O)CCCCCCCCCOc1ccc(C(=O)O)cc1)C(=O)O)NC(=O)C(C)(C)NC(=O)[C@H](CCC(N)=O)NC(=O)[C@H](C)NC(=O)[C@H](CCCCNC(=O)COCCOCCNC(=O)COCCOCCNC(=O)CC[C@H](NC(=O)CCCCCCCCCOc1ccc(C(=O)O)cc1)C(=O)O)NC(=O)[C@H](CCCN)NC(=O)[C@H](CC(=O)O)NC(=O)[C@H](CC(C)C)NC(=O)[C@](C)(CC(C)C)NC(=O)[C@@H](NC(=O)C(C)(C)NC(=O)[C@H](Cc1ccncc1)NC(=O)[C@H](CC(=O)O)NC(=O)[C@H](CO)NC(=O)[C@@H](NC(=O)[C@](C)(Cc1ccccc1F)NC(=O)[C@@H](NC(=O)CNC(=O)[C@H](CCC(=O)O)NC(=O)C(C)(C)NC(=O)[C@@H](N)Cc1ccc(O)cc1)[C@@H](C)O)[C@@H](C)O)[C@@H](C)CC)[C@@H](C)CC)C(=O)N[C@@H](CCC(=O)O)C(=O)NCC(=O)NCC(=O)N1CCC[C@H]1C(=O)N[C@@H](CO)C(=O)N[C@@H](CO)C(=O)NCC(=O)N[C@@H](C)C(=O)N1CCC[C@H]1C(=O)N1CCC[C@H]1C(=O)N1CCC[C@H]1C(=O)N[C@@H](CO)C(N)=O [Example 243]	> 9950	> 9950	93.2	0.86	90.5	–	0.0154	114	0.728
